Measurements reported in the supplement of paper PMC10627819.

Assays:
S. pneumoniae D39V [1] = assay: Bliss interaction score (quartile over a dose matrix) (fitness difference); higher = more antagonism (negative = synergy)
How it was run: (§1)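 Quartiles summarise the Bliss score over technical, biological and donor/recipient replicates, where the score is observed minus expected fitness under a product model. Expected fitness uses single-drug values inferred from combination data. Fitness is OD595 at entry into stationary phase over the plate's robust no-drug mean, capped at 1.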

S. aureus Newman = assay: as above
How it was run: as §1

B. subtilis 168 [2] = assay: as above
How it was run: as §1

S. aureus DSM 20231 [3] = assay: as above
How it was run: as §1

S. pneumoniae D39V [4] = assay: fitness (endpoint OD595 vs no drug) (fraction); higher = more growth
How it was run: (§2)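 Cultures at OD595 0.01 were dispensed into 384-well plates in TSB, LB Lennox or CY and incubated at 37 °C. Every 30 min for 14 h, OD595 was read and corrected by the first reading. Fitness is the optical density at entry into stationary phase relative to the robust mean of no-drug control wells, capped at 1.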

B. subtilis 168 [5] = assay: as above
How it was run: as §2

S. aureus DSM 20231 [6] = assay: as above
How it was run: as §2
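Throughout, for Bliss interaction score (quartile over a dose matrix): first quartile when negative (synergy) and third quartile when positive (antagonism).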

CC(=O)NC[C@H]1CN(c2ccc(N3CCOCC3)c(F)c2)C(=O)O1 [Linezolid] + CCN(CC)CCOC(=O)c1ccc(N)cc1 [Procaine]
Details	Bliss interaction score
B. subtilis 168 [2]	0.0668
S. aureus DSM 20231 [3]	-0.0676
S. aureus Newman	0.111
S. pneumoniae D39V [1]	0.0684

fitness
Details	first compound 0.105 µg/mL	first compound 0.125 µg/mL	first compound 0.21 µg/mL	first compound 0.25 µg/mL	first compound 0.42 µg/mL	first compound 0.5 µg/mL
B. subtilis 168 [5], partner 85.5 µg/mL	–	0.587	–	0.101	–	0.022
B. subtilis 168 [5], partner 171 µg/mL	–	0.613	–	0.0992	–	0.0423
B. subtilis 168 [5], partner 342 µg/mL	–	0.569	–	0.0813	–	0.0154
S. aureus DSM 20231 [6], partner 85.5 µg/mL	–	0.839	–	0.574	–	0.15
S. aureus DSM 20231 [6], partner 171 µg/mL	–	0.832	–	0.643	–	0.193
S. aureus DSM 20231 [6], partner 342 µg/mL	–	0.768	–	0.582	–	0.143
S. pneumoniae D39V [4], partner 85.5 µg/mL	0.824	–	0.728	–	0.579	–
S. pneumoniae D39V [4], partner 171 µg/mL	0.816	–	0.719	–	0.569	–
S. pneumoniae D39V [4], partner 342 µg/mL	0.801	–	0.699	–	0.535	–

fitness, one replicate
Details	partner 85.5 µg/mL	partner 171 µg/mL	partner 342 µg/mL
B. subtilis 168 [5], first compound 0.0625 µg/mL	0.828	0.846	0.858
S. aureus DSM 20231 [6], first compound 1 µg/mL	0.0561	0.0334	0.05
S. pneumoniae D39V [4], first compound 0.2 µg/mL	0.792	0.839	0.778
S. pneumoniae D39V [4], first compound 0.4 µg/mL	0.609	0.669	0.621
S. pneumoniae D39V [4], first compound 0.8 µg/mL	0.245	0.335	0.271

CC(=O)NC[C@H]1CN(c2ccc(N3CCOCC3)c(F)c2)C(=O)O1 [Linezolid] + CN1C2=CC=CC=C2N=C3C1=CC=CC3=O [Pyocyanin]
Details	Bliss interaction score
B. subtilis 168 [2]	0.109
S. aureus DSM 20231 [3]	0.047
S. aureus Newman	-0.0368
S. pneumoniae D39V [1]	0.118

Details	fitness
B. subtilis 168 [5], first compound 0.125 µg/mL, partner 1.25 µg/mL	0.563
B. subtilis 168 [5], first compound 0.125 µg/mL, partner 2.5 µg/mL	0.544
B. subtilis 168 [5], first compound 0.125 µg/mL, partner 5 µg/mL	0.466
B. subtilis 168 [5], first compound 0.25 µg/mL, partner 2.5 µg/mL	0.093
B. subtilis 168 [5], first compound 0.25 µg/mL, partner 5 µg/mL	0.131
B. subtilis 168 [5], first compound 0.5 µg/mL, partner 1.25 µg/mL	0.027
B. subtilis 168 [5], first compound 0.5 µg/mL, partner 2.5 µg/mL	0.0397
B. subtilis 168 [5], first compound 0.5 µg/mL, partner 5 µg/mL	0.0383
S. aureus DSM 20231 [6], first compound 0.125 µg/mL, partner 1.25 µg/mL	0.768
S. aureus DSM 20231 [6], first compound 0.125 µg/mL, partner 2.5 µg/mL	0.829
S. aureus DSM 20231 [6], first compound 0.125 µg/mL, partner 5 µg/mL	0.546
S. aureus DSM 20231 [6], first compound 0.25 µg/mL, partner 1.25 µg/mL	0.559
S. aureus DSM 20231 [6], first compound 0.5 µg/mL, partner 1.25 µg/mL	0.208
S. aureus DSM 20231 [6], first compound 0.5 µg/mL, partner 2.5 µg/mL	0.143
S. aureus DSM 20231 [6], first compound 0.5 µg/mL, partner 5 µg/mL	0.0745
S. pneumoniae D39V [4], first compound 0.105 µg/mL, partner 0.325 µg/mL	0.858
S. pneumoniae D39V [4], first compound 0.105 µg/mL, partner 0.65 µg/mL	0.882
S. pneumoniae D39V [4], first compound 0.105 µg/mL, partner 1.3 µg/mL	0.632
S. pneumoniae D39V [4], first compound 0.21 µg/mL, partner 0.325 µg/mL	0.773
S. pneumoniae D39V [4], first compound 0.21 µg/mL, partner 0.65 µg/mL	0.775
S. pneumoniae D39V [4], first compound 0.21 µg/mL, partner 1.3 µg/mL	0.608
S. pneumoniae D39V [4], first compound 0.42 µg/mL, partner 0.325 µg/mL	0.605
S. pneumoniae D39V [4], first compound 0.42 µg/mL, partner 0.65 µg/mL	0.589
S. pneumoniae D39V [4], first compound 0.42 µg/mL, partner 1.3 µg/mL	0.389

one replicate
Details	fitness
B. subtilis 168 [5], first compound 0.0625 µg/mL, partner 1.25 µg/mL	0.804
B. subtilis 168 [5], first compound 0.0625 µg/mL, partner 2.5 µg/mL	0.749
B. subtilis 168 [5], first compound 0.0625 µg/mL, partner 5 µg/mL	0.594
S. aureus DSM 20231 [6], first compound 1 µg/mL, partner 1.25 µg/mL	0.0458
S. aureus DSM 20231 [6], first compound 1 µg/mL, partner 2.5 µg/mL	0.0282
S. aureus DSM 20231 [6], first compound 1 µg/mL, partner 5 µg/mL	0.0258
S. pneumoniae D39V [4], first compound 0.2 µg/mL, partner 0.325 µg/mL	0.892
S. pneumoniae D39V [4], first compound 0.2 µg/mL, partner 0.65 µg/mL	0.824
S. pneumoniae D39V [4], first compound 0.4 µg/mL, partner 0.325 µg/mL	0.745
S. pneumoniae D39V [4], first compound 0.4 µg/mL, partner 0.65 µg/mL	0.745
S. pneumoniae D39V [4], first compound 0.8 µg/mL, partner 0.325 µg/mL	0.483
S. pneumoniae D39V [4], first compound 0.8 µg/mL, partner 0.65 µg/mL	0.603
